Values after ≈ are worked out from the molar mass of the structure shown. Like-named read-outs stand apart in the source and are kept apart here.
Legend:
[1] = molecular target: T1, calf mucosal adenosine deaminase (EC 3.5.4.4) (Bos taurus, UniProt P56658); experiment: Deamination kinetics of compounds as substrates of adenosine deaminase; assay type: biochemical; conditions: for adenosine deaminase substrate / deamination by / resistance to adenosine deaminase: in words; for rel Vmax: relative, 37 = 1; for deamination by / resistance to adenosine deaminase: in vitro; for complex formation with adenosine deaminase: Table 1
T1 construct: calf mucosal adenosine deaminase; from tissue; host or cells: calf mucosa
T1 sequence (P56658 1-363): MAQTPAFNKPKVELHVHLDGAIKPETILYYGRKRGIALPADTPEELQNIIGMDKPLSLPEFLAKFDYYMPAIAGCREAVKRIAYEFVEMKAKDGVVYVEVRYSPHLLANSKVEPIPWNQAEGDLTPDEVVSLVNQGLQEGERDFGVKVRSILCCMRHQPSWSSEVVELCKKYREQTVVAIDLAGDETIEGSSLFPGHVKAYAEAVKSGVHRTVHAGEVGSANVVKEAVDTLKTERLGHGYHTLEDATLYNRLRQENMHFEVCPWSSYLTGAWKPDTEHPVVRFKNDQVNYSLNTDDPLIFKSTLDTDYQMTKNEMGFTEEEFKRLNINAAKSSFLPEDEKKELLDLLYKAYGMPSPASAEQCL
Source text: (§1) By following an established procedure [Ogilvie, K. K.; Nguyen-Ba, N.; Gillen, M. F.; Radatus, B. K.; Cheriyan, U. O.; Hanna, H. R.; Smith, K. O.; Galloway, K. S. Synthesis of A Purine Acyclonucleoside Series Having Pronounced Antiviral Activity. The Glyceropurines. Can. J. Chem. 1984, 62, 241-252.], we determined the rates of deamination of VI, 13, 37, 40, and 42 in the presence of calf mucosal adenosine deaminase (EC 3.5.4.4) in buffer solutions.

[2] = molecular target: T1, calf mucosal adenosine deaminase (EC 3.5.4.4); experiment: Competitive inhibition of adenosine deaminase; assay type: biochemical; conditions: for type of inhibition of adenosine deaminase / Ki: Ara-A 37 used as substrate; for Ki: Kaplan method
Source text: as §1

[3] = system: herpes simplex type 1 virus (HSV-1); experiment: Inhibition of cytopathogenicity of HSV-1 in Hela cell culture; assay type: cell-based; conditions: for IC50: read-out: IC50 HSV-1 (KOS)
Protocol: (§2) We tested the synthesized compounds for their inhibition of cytopathogenicity of herpes simplex type 1 virus (HSV-1), herpes simplex type 2 virus (HSV-2), and varicella-zoster virus (VZV) in Hela cell culture. These compounds include VI, 12, 13, 40, 42, a mixture of VI and 13 (1:1), ara-A 37, and a mixture of 13 and 37 (1:1). Toxicity of these compounds was evaluated by their ability to cause morphological changes in cells at different concentrations.

[4] = system: herpes simplex type 2 virus (HSV-2); experiment: Inhibition of cytopathogenicity of HSV-2 in Hela cell culture; assay type: cell-based; conditions: for IC50: read-out: IC50 HSV-2 (G)
Protocol: as §2

[5] = system: varicella-zoster virus (VZV); experiment: Inhibition of cytopathogenicity of VZV in Hela cell culture; assay type: cell-based; conditions: for IC50: read-out: IC50 VZV (YS)
Protocol: as §2

[6] = Toxicity: morphological changes in Hela cells; assay type: cell-based; conditions: human; Hela cells; average of triplicate determinations; read-out: IC50 Hela cell (concentration required to cause microscopically visible change or disruption in about 50% of the cell sheet)
Protocol: as §2
(§3) ^b Concentration of the compound required to cause microsopically
(§4) visible change or disruption in about 50% of the cell sheet; and […]

[7] = system: Hela cell; experiment: Toxicity: morphological changes in Hela cells; assay type: cell-based; conditions: in comparison with Ara-A 37
Protocol: as §2, §3, §4

[8] = Solubility in H2O (phosphate buffer); conditions: for water solubility (in words): from Table 2; for solubility in H2O: phosphate buffer 0.10M, 20 h, UV absorbance; for solubility at 20 h: 0.10 m phosphate buffer, aqueous buffer
Protocol: Each compound (70 mg) listed in Table 2 was agitated in a 25-mL volumetric flask with phosphate buffer (0.10M, 5.0 mL) for 20 h. This solution was filtered from undissolved solid through a sintered glass funnel (4.0-5.5 mesh ASTM) and the concentration of the solution was determined by UV absorbance (Table 2).

[9] = Partition coefficient (lipophilicity), 1-pentanol / phosphate buffer; conditions: P = [Substrate]1-pentanol/[Substrate]H2O
Protocol: The layers were separated, and their concentrations were determined by an UV spectrophotometer.
^a Partition coefficients were calculated as follows:
P = [Substrate]1pentanol /[Substrate]H.sbsb.2O.

[10] = system: HSV-1, HSV-2 and VZV; experiment: Anti-herpes activity in Hela cell culture (all viruses of Table 3); assay type: cell-based; conditions: for effect on antiviral activity by mixing with compound 13: mixed with compound 13 (Table 3)
Protocol: as §2

[11] = system: viral replication; conditions: background; cited from earlier work
[12] = system: acute type B hepatitis; conditions: background; cited from earlier work
[13] = background; cited from earlier work
[14] = system: adenosine deaminase; conditions: background; cited from earlier work
[15] = Human alphaherpesvirus 1, strain KOS, Hela cell culture, average of triplicate determinations
[16] = Human alphaherpesvirus 2, strain G, Hela cell culture, average of triplicate determinations
[17] = Human alphaherpesvirus 3, strain YS, Hela cell culture, average of triplicate determinations

SMILES | adenosine deaminase substrate [1] | rel Vmax [1] | type of inhibition of adenosine deaminase [2] | Ki [2] | antiviral activity against HSV-1 (in words) ([3]; Hela cell culture) | IC50 [3, 15] | antiviral activity against HSV-2 (in words) ([4]; Hela cell culture) | IC50 [4, 16] | antiviral activity against VZV (in words) ([5]; Hela cell culture) | IC50 [5, 17] | CC50 [6] | cellular toxicity (in words) [7] | water solubility (in words) [8] | solubility in H2O [8] | log P [9] | deamination by / resistance to adenosine deaminase [1] | solubility at 20 h [8] | complex formation with adenosine deaminase [1] | effect on antiviral activity by mixing with compound 13 [10] | inhibition of viral replication [11] | further results
Nc1ncnc2c1ncn2COCCP(=O)(O)O [Compound 13, 2-[(Adenin-9-yl)methoxy]ethylphosphonic Acid] | adenosine deaminase substrates | 1.49 × 10^-6 | competitive inhibition | 18.2 µM | exhibit antiviral activity | 3.98 µg/mL (≈ 14.6 µM) | exhibit antiviral activity | 5.86 µg/mL (≈ 21.5 µM) | exhibit antiviral activity | 16 µg/mL (≈ 58.6 µM) | 215 µg/mL (≈ 787 µM) | lower cellular toxicity | higher water solubility | 13640 µg/mL (≈ 49900 µM) | 0.07 |  |  |  |  |  | Vmax compared with that of VI (times less) ([1]; versus VI): ~ 10^-4 times less; inhibition of adenosine deaminase (in words) ([2]; Table 1): inhibits adenosine deaminase; efficiency as inhibitor of adenosine deaminase versus acyclonucleoside VI ([2]; compared with VI): acted more efficiently than acyclonucleoside VI
COC(=O)C(C)NP(=O)(CCOCn1cnc2c(N)ncnc21)OC1C(CO)OC(n2cnc3c(N)ncnc32)C1O [Compound 42, 9-(β-D-Arabinofuranosyl)adenine-3'-[(Methoxyalaninyl)[2-(adenin-9-ylmethoxy)ethyl]phosphonates]] |  |  |  |  | exhibit antiviral activity | 0.38 µg/mL (≈ 0.625 µM) | exhibit antiviral activity | 0.88 µg/mL (≈ 1.45 µM) | exhibit antiviral activity | 4.82 µg/mL (≈ 7.93 µM) | 215 µg/mL (≈ 355 µM) | lower cellular toxicity | higher water solubility |  | 0.87 | completely resisted deamination | 8250 µg/mL (≈ 13600 µM) |  |  |  | Km ([1]; adenosine deaminase substrate, buffer solutions): > 1500 µM; antiviral activity (in words) ([10]; Table 3): superior antiviral activity
Nc1ncnc2c1ncn2COCCP(=O)(O)O[C@H]1[C@H](O)[C@H](n2cnc3c(N)ncnc32)O[C@@H]1CO [Compound 40, 9-(β-D-Arabinofuranosyl)adenine-3'-[[2-(Adenin-9-ylmethoxy)ethyl]phosphonate]] | a substrate of adenosine deaminase | 7.64 × 10^-2 |  |  | exhibit antiviral activity | 8.97 µg/mL (≈ 17.2 µM) | exhibit antiviral activity | 16.3 µg/mL (≈ 31.2 µM) | not active against VZV | > 128 µg/mL | 346 µg/mL (≈ 662 µM) | lower cellular toxicity | higher water solubility | 2460 µg/mL (≈ 4710 µM) | -0.68 | slow rate of deamination |  |  |  |  | Vmax less than that of Ara-A 37 ([1]; versus Ara-A 37): 92%
Nc1ncnc2c1ncn2[C@@H]1O[C@H](CO)[C@@H](O)[C@@H]1O [Compound 37, 9-(β-D-arabinofuranosyl)adenine, reference compound] |  | 1 |  |  |  | 10.8 µg/mL (≈ 40.4 µM) |  | > 128 µg/mL |  | > 128 µg/mL | 98.8 µg/mL (≈ 370 µM) |  |  |  | -0.47 |  | 400 µg/mL (≈ 1500 µM) | can form a complex | synergistic effect | can inhibit viral replication | potency in treating a patient having acute type B hepatitis [12]: potent; lipophilicity (in words) [13]: poor lipophilicity; conversion in vivo to hypoxanthine (Ara-Hx) via deamination by adenosine deaminase [14]: converted in vivo to hypoxanthine (Ara-Hx)
CCOP(=O)(O)CCOCn1cnc2c(N)ncnc21.N [Compound 12, Ammonium Ethyl [2-[(Adenin-9-yl)methoxy]ethyl]phosphonate] |  |  |  |  | exhibit antiviral activity |  | exhibit antiviral activity |  | exhibit antiviral activity |  | 176 µg/mL | lower cellular toxicity |  |  |  |  |  |  |  |  | IC50 ([3]; Human alphaherpesvirus 1, HeLa): 11.3 µg/mL; IC50 ([4]; Human alphaherpesvirus 2, HeLa): 13.8 µg/mL; IC50 ([5]; Human alphaherpesvirus 3, HeLa): 25 µg/mL
Nc1ncnc2c1ncn2COCCO [VI, Acyclic adenosine, reference compound] | adenosine deaminase substrates | 1.52 × 10^-2 | competitive inhibition | 142 µM |  | 4.43 µg/mL (≈ 21.2 µM) |  | 8.26 µg/mL (≈ 39.5 µM) |  | 6.5 µg/mL (≈ 31.1 µM) | 266 µg/mL (≈ 1270 µM) |  |  | 1950 µg/mL (≈ 9320 µM) | 0.98 |  |  | can form a complex | synergistic effect | can inhibit viral replication | 
